These results are taken from ChEMBL document CHEMBL1142084, “In vitro activities of tigecycline and eight other antimicrobials against different Nocardia species identified by molecular methods” (2007).

≈ marks a conversion by molar mass, not a printed value. Bounds are passed on as bounds.

What all share (format): functional
In assay [1] the test system is Nocardia cyriacigeorgica. Kind of assay: Antimicrobial activity against Nocardia cyriacigeorgica after 72 hrs by microdilution method. On the technique in general: Broth dilution looks for growth in wells or tubes with falling amounts of substance.
Assay [2] concerns Nocardia farcinica. Kind of assay: Antimicrobial activity against Nocardia farcinica after 72 hrs by microdilution method.
Assay [3] deals with Nocardia otitidiscaviarum. Kind of assay: Antimicrobial activity against Nocardia otitidiscaviarum after 72 hrs by microdilution method.
For assay [4], the system named is Nocardia abscessus. Kind of assay: Antimicrobial activity against Nocardia abscessus after 72 hrs by microdilution method.
Assay [5] concerns Nocardia beijingensis. Kind of assay: Antimicrobial activity against Nocardia beijingensis after 72 hrs by microdilution method.
Assay [6] has as its system Nocardia nova. Kind of assay: Antimicrobial activity against Nocardia nova after 72 hrs by microdilution method.
For assay [7], the system named is Nocardia veterana. Kind of assay: Antimicrobial activity against Nocardia veterana after 72 hrs by microdilution method.
Assay [8] deals with Nocardia transvalensis. Kind of assay: Antimicrobial activity against Nocardia transvalensis after 72 hrs by microdilution method.
Assay [9] relates to Nocardia carnea. Kind of assay: Antimicrobial activity against Nocardia carnea after 72 hrs by microdilution method.
Assay [10] deals with Nocardia brasiliensis. Kind of assay: Antimicrobial activity against Nocardia brasiliensis after 72 hrs by microdilution method.
In assay [11] the test system is Nocardia sp. Kind of assay: Antimicrobial activity against Nocardia sp. after 72 hrs by microdilution method.

By MIC is commonly meant the least concentration at which growth counts as inhibited. On to `COc1c(N2C[C@@H]3CCCN[C@@H]3C2)c(F)cc2c(=O)c(C(=O)O)cn(C3CC3)c12` [MOXIFLOXACIN], for which the MIC is not above 0.06 mg/L in assay [1]; not above 0.06 mg/L in assay [2]; not above 0.06 mg/L in assay [3]; 1 mg/L (≈ 2.49 µM) in assay [4]; not above 0.06 mg/L in assay [5]; 2 mg/L (≈ 4.98 µM) in assay [6]. Moreover, the MIC is 0.5 mg/L (≈ 1.25 µM) in assay [7]; 0.12 mg/L (≈ 0.299 µM) in [8]; not above 0.06 mg/L in [9]; not above 0.06 mg/L in assay [10]; not above 0.06 mg/L in assay [11].

Regarding `CN(C)c1ccc(O)c2c1C[C@H]1C[C@H]3[C@H](N(C)C)C(O)=C(C(N)=O)C(=O)[C@@]3(O)C(O)=C1C2=O` [MINOCYCLINE], the minimum inhibitory concentration (MIC) in assay [1] is not above 0.06 mg/L; in [2], 1 mg/L (≈ 2.19 µM); in assay [3] it was 0.5 mg/L (≈ 1.09 µM); in [4], not above 0.06 mg/L; in assay [5] it was not above 0.06 mg/L; in assay [6] it was 1 mg/L (≈ 2.19 µM). Further, the MIC is 1 mg/L (≈ 2.19 µM) in [7]; 1 mg/L (≈ 2.19 µM) in [8]; 0.5 mg/L (≈ 1.09 µM) in assay [9]; 1 mg/L (≈ 2.19 µM) in assay [10]; 0.25 mg/L (≈ 0.546 µM) in [11].

Consider `C[C@@H](O)[C@H]1C(=O)N2C(C(=O)O)=C(S[C@@H]3CN[C@H](C(=O)N(C)C)C3)[C@H](C)[C@H]12` [MEROPENEM], for which the MIC is not above 0.06 mg/L in [1]; 2 mg/L (≈ 5.22 µM) in assay [2]; 1 mg/L (≈ 2.61 µM) in assay [3]; 0.25 mg/L (≈ 0.652 µM) in assay [4]; 2 mg/L (≈ 5.22 µM) in [5]; 0.5 mg/L (≈ 1.3 µM) in [6]. Moreover, the MIC in assay [7] is 0.12 mg/L (≈ 0.313 µM); in [8], more than 64 mg/L; in assay [9], 1 mg/L (≈ 2.61 µM); in [10] it was 1 mg/L (≈ 2.61 µM); in assay [11] it was not above 0.06 mg/L.

Turning to `CN(C)c1cc(NC(=O)CNC(C)(C)C)c(O)c2c1C[C@H]1C[C@H]3[C@H](N(C)C)C(O)=C(C(N)=O)C(=O)[C@@]3(O)C(O)=C1C2=O` [TIGECYCLINE], the MIC was not above 0.06 mg/L in assay [1]; 1 mg/L (≈ 1.71 µM) in assay [2]; not above 0.06 mg/L in [3]; not above 0.06 mg/L in assay [4]; 0.25 mg/L (≈ 0.427 µM) in [5]; 0.5 mg/L (≈ 0.854 µM) in [6]. The MIC is 0.12 mg/L (≈ 0.205 µM) in assay [7]; 2 mg/L (≈ 3.41 µM) in [8]; not above 0.06 mg/L in assay [9]; not above 0.06 mg/L in [10]; not above 0.06 mg/L in assay [11].

Regarding `CC(=O)NC[C@H]1CN(c2ccc(N3CCOCC3)c(F)c2)C(=O)O1` [LINEZOLID], the MIC in assay [1] was 0.12 mg/L (≈ 0.356 µM); in [2], 0.12 mg/L (≈ 0.356 µM); in [3], not above 0.06 mg/L; in assay [4], not above 0.06 mg/L; in assay [5] it was not above 0.06 mg/L; in assay [6], 0.12 mg/L (≈ 0.356 µM). The MIC in assay [7] is 0.25 mg/L (≈ 0.741 µM); in [8], 1 mg/L (≈ 2.96 µM); in assay [9] it was not above 0.06 mg/L; in assay [10], 1 mg/L (≈ 2.96 µM); in [11], not above 0.06 mg/L.

Take `C[C@@H](O)[C@H]1C(=O)N2C(C(=O)O)=C(S[C@@H]3CN[C@H](C(=O)Nc4cccc(C(=O)O)c4)C3)[C@H](C)[C@H]12` [ERTAPENEM]: the MIC is not above 0.06 mg/L in assay [1]; 4 mg/L (≈ 8.41 µM) in assay [2]; 1 mg/L (≈ 2.1 µM) in assay [3]; 0.5 mg/L (≈ 1.05 µM) in assay [4]; 2 mg/L (≈ 4.21 µM) in assay [5]; 0.5 mg/L (≈ 1.05 µM) in assay [6]. The MIC in assay [7] is 0.25 mg/L (≈ 0.526 µM); in assay [8] it was more than 64 mg/L; in [9], 2 mg/L (≈ 4.21 µM); in assay [10], 2 mg/L (≈ 4.21 µM); in assay [11] it was 0.25 mg/L (≈ 0.526 µM).

Turning to `C[C@@H](O)[C@H]1C(=O)N2C(C(=O)O)=C(SCCNC=N)C[C@H]12` [IMIPENEM ANHYDROUS], the MIC is not above 0.06 mg/L in [1]; 1 mg/L (≈ 3.34 µM) in assay [2]; 0.5 mg/L (≈ 1.67 µM) in [3]; 0.5 mg/L (≈ 1.67 µM) in assay [4]; 0.5 mg/L (≈ 1.67 µM) in assay [5]; 0.12 mg/L (≈ 0.401 µM) in [6]. In addition, the MIC in [7] is not above 0.06 mg/L; in [8] it was more than 64 mg/L; in [9] it was 0.5 mg/L (≈ 1.67 µM); in assay [10], 1 mg/L (≈ 3.34 µM); in [11] it was not above 0.06 mg/L.

Consider `NCC[C@H](O)C(=O)N[C@@H]1C[C@H](N)[C@@H](O[C@H]2O[C@H](CN)[C@@H](O)[C@H](O)[C@H]2O)[C@H](O)[C@H]1O[C@H]1O[C@H](CO)[C@@H](O)[C@H](N)[C@H]1O` [AMIKACIN], for which the MIC in assay [1] is not above 0.06 mg/L; in [2], 1 mg/L (≈ 1.71 µM); in assay [3], 1 mg/L (≈ 1.71 µM); in assay [4] it was not above 0.06 mg/L; in [5], not above 0.06 mg/L; in assay [6] it was 0.12 mg/L (≈ 0.205 µM). For the same molecule, the MIC in [7] amounted to 0.25 mg/L (≈ 0.427 µM); in assay [8], 32 mg/L (≈ 54.6 µM); in assay [9], 0.5 mg/L (≈ 0.854 µM); in [10], 1 mg/L (≈ 1.71 µM); in assay [11], 0.25 mg/L (≈ 0.427 µM).
